From paper PMC10866925, “Catalyst-free late-stage functionalization to assemble α-acyloxyenamide electrophiles for selectively profiling conserved lysine residues” (Communications Chemistry, 2024)

How the values were obtained:
[1] = target: T1, ATP-dependent 6-phosphofructokinase, platelet type (PFKAP) (Homo sapiens, UniProt Q01813); assay: pull-down/LC-MS and pull-down/WB in cells, K688R mutant and siRNA knockdown; format: cell-based
T1 construct: gene PFKP; full-length
T1 sequence (Q01813 1-784): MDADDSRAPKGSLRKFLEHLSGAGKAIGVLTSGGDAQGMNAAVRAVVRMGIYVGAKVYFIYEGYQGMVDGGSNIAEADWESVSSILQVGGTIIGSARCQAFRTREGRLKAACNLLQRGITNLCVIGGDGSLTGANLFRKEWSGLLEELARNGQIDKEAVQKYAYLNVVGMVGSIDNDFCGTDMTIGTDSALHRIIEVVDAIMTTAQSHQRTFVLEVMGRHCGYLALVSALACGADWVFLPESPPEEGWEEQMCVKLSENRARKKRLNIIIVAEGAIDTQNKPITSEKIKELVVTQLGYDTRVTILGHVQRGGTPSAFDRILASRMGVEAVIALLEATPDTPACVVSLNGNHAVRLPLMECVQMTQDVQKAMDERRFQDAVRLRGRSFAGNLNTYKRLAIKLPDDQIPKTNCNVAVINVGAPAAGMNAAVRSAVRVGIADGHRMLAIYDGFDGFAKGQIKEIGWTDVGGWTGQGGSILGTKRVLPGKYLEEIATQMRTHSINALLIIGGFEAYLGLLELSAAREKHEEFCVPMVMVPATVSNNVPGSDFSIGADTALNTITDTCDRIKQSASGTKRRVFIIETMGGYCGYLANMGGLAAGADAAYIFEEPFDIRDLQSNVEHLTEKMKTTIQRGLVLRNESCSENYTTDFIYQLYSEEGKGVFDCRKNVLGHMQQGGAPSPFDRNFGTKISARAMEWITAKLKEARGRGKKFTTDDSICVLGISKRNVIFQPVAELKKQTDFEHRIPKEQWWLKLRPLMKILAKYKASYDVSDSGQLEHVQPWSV

EGFR L858R mutant = EGFR L858R mutant (Homo sapiens, UniProt P00533, L858R); assay: Z'-LYTE FRET kinase assay, time dependent ([…] at […] min, […] at […] h); also labelling of recombinant protein, LC-MS/MS site mapping, CETSA, competitive pull-down; format: biochemical
CDK1 = target: T2, CDK1 (Homo sapiens, UniProt P06493); assay: radiometric kinase assay ([…]-ATP, histone H1); also MS of K33 modification, K33R pull-down/WB, CETSA; format: biochemical
T2 construct: CDK1/cyclinB (h); with cyclin B

CDK5 = target: T3, CDK5 (Homo sapiens, UniProt Q00535); assay: radiometric kinase assay ([…]-ATP, histone H1); also K33R pull-down/WB; format: biochemical
T3 construct: CDK5/p25 (h); with p25

CDK2 = target: T4, CDK2 (Homo sapiens, UniProt P24941); assay: as above; format: biochemical
T4 construct: CDK2/cyclinA (h); with cyclin A

T3 sequence (Q00535 whole entry): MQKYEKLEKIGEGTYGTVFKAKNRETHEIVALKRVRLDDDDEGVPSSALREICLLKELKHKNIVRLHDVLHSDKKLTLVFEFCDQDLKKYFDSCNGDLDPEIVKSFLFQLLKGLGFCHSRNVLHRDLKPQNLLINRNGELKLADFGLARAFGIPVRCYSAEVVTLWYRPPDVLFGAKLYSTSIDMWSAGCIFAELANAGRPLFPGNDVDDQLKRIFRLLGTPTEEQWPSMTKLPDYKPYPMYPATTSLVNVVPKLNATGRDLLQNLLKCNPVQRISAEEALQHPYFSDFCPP
T3 sequence (Q15078 99-307 partner limits assumed): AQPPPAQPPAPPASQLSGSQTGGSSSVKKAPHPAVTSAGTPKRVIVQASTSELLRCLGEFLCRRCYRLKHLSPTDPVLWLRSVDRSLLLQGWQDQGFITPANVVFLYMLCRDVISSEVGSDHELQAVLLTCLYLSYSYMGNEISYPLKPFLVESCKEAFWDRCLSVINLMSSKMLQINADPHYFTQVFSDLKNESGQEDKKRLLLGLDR
T2 sequence (P06493 whole entry): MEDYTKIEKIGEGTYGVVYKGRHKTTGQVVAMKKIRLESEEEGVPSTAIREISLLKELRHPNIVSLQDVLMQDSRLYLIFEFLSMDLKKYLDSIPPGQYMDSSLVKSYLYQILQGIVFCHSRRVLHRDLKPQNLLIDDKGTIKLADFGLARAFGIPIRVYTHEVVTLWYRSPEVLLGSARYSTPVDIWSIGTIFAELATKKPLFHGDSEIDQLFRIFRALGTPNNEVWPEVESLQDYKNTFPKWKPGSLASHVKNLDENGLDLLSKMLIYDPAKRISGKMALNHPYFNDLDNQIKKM
T2 sequence (P14635 whole entry partner): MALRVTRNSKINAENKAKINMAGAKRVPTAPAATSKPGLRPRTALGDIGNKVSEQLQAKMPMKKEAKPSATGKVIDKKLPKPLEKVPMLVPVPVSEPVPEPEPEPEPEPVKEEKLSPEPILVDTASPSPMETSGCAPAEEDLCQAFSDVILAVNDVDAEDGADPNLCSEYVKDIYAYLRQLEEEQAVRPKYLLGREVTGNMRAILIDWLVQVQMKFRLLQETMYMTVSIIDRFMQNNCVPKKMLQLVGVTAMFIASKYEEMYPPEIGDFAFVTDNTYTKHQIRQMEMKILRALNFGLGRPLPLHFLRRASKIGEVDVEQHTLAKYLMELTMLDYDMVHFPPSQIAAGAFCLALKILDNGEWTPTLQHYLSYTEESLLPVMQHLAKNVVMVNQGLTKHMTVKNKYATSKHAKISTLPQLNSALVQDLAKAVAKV
Sequence of EGFR L858R mutant (P00533 669-1210 L858R limits assumed): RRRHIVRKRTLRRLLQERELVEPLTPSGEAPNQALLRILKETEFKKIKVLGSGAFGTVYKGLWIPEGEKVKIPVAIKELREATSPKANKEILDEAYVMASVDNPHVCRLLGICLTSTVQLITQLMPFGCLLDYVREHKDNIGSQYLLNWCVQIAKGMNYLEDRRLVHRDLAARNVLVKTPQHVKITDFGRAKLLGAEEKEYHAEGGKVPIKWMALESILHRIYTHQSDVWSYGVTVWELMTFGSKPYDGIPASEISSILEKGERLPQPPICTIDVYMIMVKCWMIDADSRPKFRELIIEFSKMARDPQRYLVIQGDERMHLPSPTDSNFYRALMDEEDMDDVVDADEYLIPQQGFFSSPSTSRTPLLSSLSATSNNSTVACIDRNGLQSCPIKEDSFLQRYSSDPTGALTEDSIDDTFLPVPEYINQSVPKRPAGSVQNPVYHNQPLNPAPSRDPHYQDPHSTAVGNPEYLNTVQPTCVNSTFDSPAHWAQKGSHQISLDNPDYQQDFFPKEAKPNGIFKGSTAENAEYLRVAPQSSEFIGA

In the case of C#Cc1ccc(C(=O)OC(=C)N(C)S(=O)(=O)c2ccc(C)cc2)cc1 [A1], the “pull-down/LC-MS and pull-down/WB in cells, K688R mutant and siRNA knockdown” value [1] is reported as “Mutation of PFKAP K688 in the protein binding pocket to K688R severely affects the probe labeling”.
With C#Cc1cccc(Nc2ncnc3cc(OC)c(OCCCCC(=O)OC(=C)N(C)S(=O)(=O)c4ccc(C)cc4)cc23)c1 [E3] the IC50 (EGFR L858R mutant) was 0.0013 µM.
In the case of C#CCNC(=O)c1cc(Nc2cc(C3CC3)[nH]n2)nc(N2CCN(C(=O)CCC(=O)OC(=C)N(C)S(=O)(=O)c3ccc(C)cc3)CC2)n1 [X1], the IC50 (CDK1) is reported as 2 to 6 µM, the IC50 (CDK5) is reported as 2 to 6 µM and the IC50 (CDK2) is reported as 2 to 6 µM.
